Measurements taken from paper PMC4686210, “Binding of Cyclic Di-AMP to the Staphylococcus aureus Sensor Kinase KdpD Occurs via the Universal Stress Protein Domain and Downregulates the Expression of the Kdp Potassium Transporter” (Journal of Bacteriology, 2015).

Target: T1, KdpD (sensor histidine kinase KdpD, KdpD^Sa) (Staphylococcus aureus, UniProt Q2FWH7)
T1 construct: USP domain, amino acids E225 to F383, MBP fusion [MBP-KdpD(USP)]
Assay: DRaCALA with […]-c-di-AMP and purified MBP-KdpD(USP); cold nucleotide competition
Type: binding

T1 sequence (Q2FWH7 225-383): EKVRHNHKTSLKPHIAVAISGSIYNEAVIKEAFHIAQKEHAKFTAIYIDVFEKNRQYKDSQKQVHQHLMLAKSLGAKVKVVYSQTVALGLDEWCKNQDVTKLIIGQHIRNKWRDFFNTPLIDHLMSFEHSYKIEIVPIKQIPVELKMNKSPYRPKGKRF

Nc1ncnc2c1ncn2[C@@H]1O[C@@H]2COP(=O)(O)O[C@H]3[C@@H](O)[C@H](n4cnc5c(N)ncnc54)O[C@@H]3COP(=O)(O)O[C@H]2[C@H]1O [c-di-AMP]
Kd: 2000 ± 180 nM
